Experimental data published in US5530110A, “4-ethoxy-5-fluoro-2'-deoxyuridine” (City of Hope, priority 1994, dated 1996).
Read-outs that look alike come from different tables or passages of the source.

How the values were obtained:
[1] = Relative partition coefficients between 0.1M phosphate buffer, pH 7.0 and 1-octanol; type: physicochemical; conditions: for logD: phosphate buffer / 1-octanol
[2] = system: CCRF-CEM cells; assay: Cytostatic activity (growth inhibition) of CCRF-CEM cells in culture; type: cell-based; conditions: Homo sapiens, 96 h
Experimental: Cell culture and cytostatic activity (growth inhibition): The human T-cell line CCRF-CEM was obtained from J. S. Holcenberg, Childrens Hospital of Los Angeles. Maintenance of cultures in RPMI 1640 medium and growth inhibition assays were carried out as previously described^24 except that iron-supplemented bovine calf serum was used routinely in place of dialyzed fetal bovine serum and inhibition of cell growth was based on the culture densities after four days without dilution of the cultures. […] Culture densities were also determined after three days to check that the cell growth continued in cultures without cytotoxic agents.
CCRF- CEM cells were a gift from Dr. John Holcenberg and were grown in suspension as previously described.

[3] = Hydrolysis of the alkoxy derivatives to FdU in aqueous solution; type: physicochemical; conditions: for conversion to FdU in aqueous solution / dependence of hydrolysis rate on hydroxide concentration: in words; for dependence of hydrolysis rate on hydroxide concentration: data not shown; for half-life at 150 µM: pH 11, 25°, 1.5×10^-4 M in unbuffered deionized water adjusted with NaOH or HCl, read-out: conversion half life (4→1) (converted)
Experimental: In aqueous solution, the 4-alkoxy derivatives (4) are converted to FdU (1). […] The reaction is both acid and base catalyzed. At pH 11, the half lives for the conversion are 3.3 and 12.5 hours, respectively for the methoxy (4a) and ethoxy (4b) derivatives.
Hydrolysis of the alkoxy derivatives (4a and 4b) Solutions of 4-methoxy (4a) and 4-ethoxy,5-fluoro, 2'-deoxyuridine (4b) (1.5×10^-4 M) were prepared in unbuffered, deionized water. The pH of the solutions was adjusted with the addition of 1N NaOH or 1N HCl. […] The UV spectrum obtained upon completion of the hydrolysis in both with both compounds 4a and 4b are indistinguishable from FdU^9. […] (data not shown).

[4] = system: plasma thymidine phosphorylase; conditions: in words; cited from earlier work
[5] = system: human erythrocytes and lymphocytes; conditions: in words; cited from earlier work
[6] = AZT over dT; cited from earlier work
[7] = system: DNA 5-methylcytosine; conditions: in words; cited from earlier work
[8] = system: thymidylate synthase; conditions: via kinase and deamination to FdUMP; in words; cited from earlier work
[9] = system: cellular DNA; conditions: cited from earlier work
[10] = 0.1M phosphate buffer, pH 7.0 / 1-octanol, read-out: relative partition coefficient (converted)
[11] = CCRF-CEM growth inhibition, four days, triplicate wells, read-out: EC50

lipophilicity relative to FdU ([1]; pH 7) [fold]	logD [1, 10]	EC50 [2, 11] [nM]	dependence of hydrolysis rate on hydroxide concentration [3]	half-life at 150 µM [3] [min]	SMILES	conversion to FdU in aqueous solution [3]	catabolism via plasma thymidine phosphorylase [4]	other results
14.7	-0.108	1800	proportional to [^- OH]	750	CCOc1nc(=O)n([C@H]2C[C@H](O)[C@@H](CO)O2)cc1F [4-ethoxyFdU (4b), 4-Ethoxy, 5-fluoro, 2'-deoxyuridine]	converted quantitatively to FdU in aqueous solution	–	half-life ([3]; water, pH 11, aqueous solution, read-out: half life for the conversion to FdU (converted)): 750 min
4.5	-0.62	1800	proportional to [^- OH]	132	COc1nc(=O)n([C@H]2C[C@H](O)[C@@H](CO)O2)cc1F [4-methoxyFdU (4a), 4-Methoxy, 5-fluoro, 2'-deoxyuridine]	converted quantitatively to FdU in aqueous solution	neither deoxycytidine derivatives^25 nor 4-methoxy-5-fluoro-2'deoxyuridine^26 are catabolized via this pathway	–
–	–	–	–	–	Cc1cn([C@H]2C[C@H](N=[N+]=[N-])[C@@H](CO)O2)c(=O)[nH]c1=O [AZT]	–	–	cell entry [5]: can enter human erythrocytes and lymphocytes by nonfacilitated diffusion; increased lipophilicity over dT [6]: 20 fold
–	-1.55	6.9	–	–	Nc1nc(=O)n([C@H]2C[C@H](O)[C@@H](CO)O2)cc1F [FdC (5), 5-Fluoro, 2'-deoxycytidine]	–	–	decrease in DNA 5-methylcytosine levels [7]: dramatic decreases in DNA 5-methylcytosinelevels; inhibition of thymidylate synthase [8]: inhibition of thymidylate synthase; relation of DNA incorporation to cytotoxicity [9]: level of FdC incorporation is proportional to cytotoxicity
–	–	8.9	–	–	O=c1[nH]c(=O)n([C@H]2C[C@H](O)[C@@H](CO)O2)cc1F [FdU (1), reference compound]	–	cleavage via plasma thymidine phosphorylase	logD ([1]; pH 7): -1.28
–	–	–	–	–	O=c1[nH]cc(F)c(=O)[nH]1 [fluorouracil, 5-fluorouracil, reference compound]	–	–	EC50 ([2]; CCRF-CEM): 5000 nM
